Columns and labels:
[1] = tested on: atrial fibrillation; assay: Peri-operative atrial fibrillation dog model; format: in vivo
Protocol: FIG. 29. […] Peri-operative AF was induced in a dog three days after a right atriotomy by brief, rapid pacing. Routinely, this procedure results in AF that continues for at least 30 min and is only stopped by electrical cardioversion. Panel A depicts an EKG trace of the animal just prior to the induction of AF. This run of AF continued for 30 min and the animal was shocked into a normal sinus rhythm (NSR). After 15 min, a second run of AF was induced and a recording of the EKG obtained during this period of AF is shown in Panel B. 20 min later, ONO-RS-082 (0.7 mg/kg) was infused over 2 min. The heart rate slowed within 1 min of the administration of the drug and the EKG normalized within 5 min and persisted in NSR for over an hour at which point the experiment was terminated (Panel C).
Peri-operative AF was induced in a dog three days after a right atriotomy by brief, rapid pacing. Routinely, this procedure results in AF that continues for at least 30 min and is only stopped by electrical cardioversion. Panel A of FIG. 29 depicts an EKG trace of the animal just prior to the induction of AF. This run of AF continued for 30 min and the animal was shocked into a normal sinus rhythm (NSR). After 15 min, a second run of AF was induced and a recording of the EKG obtained during this period of AF is shown in Panel B. 20 min later, ONO-RS-082 (0.7 mg/kg) was infused over 2 min. Following administration of the drug, the heart rate slowed within 1 min of the administration of the drug and the EKG normalized within 5 min and persisted in NSR for over an hour at which point the experiment was terminated (FIG. 29, Panel C).

[2] = tested on: murine TASK-1 T381A mutant; assay: T381A mutant TASK-1 current in CHO cells; format: cell-based, mouse; settings: +30 mV, C-PAF 185 nM
Protocol: pCMV-TASK1 (cTBAK) consists of a 1.9 kb sequence of murine TASK-1 inserted in pcDNA3.1 (a kind gift of Dr. Yoshihisa Kurachi, University of Osaka, Japan) and has been previously described (Leonoudakis D et al. (1998) J Neurosci 18: 868-877). pEGFP-C1 and pIRES-EGFP were purchased from Clontech. pTIE (TASK1-IRES-EGFP) was constructed by inserting a 1.9 kb EcoR1 fragment from pCMV-TASK1 into EcoR1 digested pIRES-EGFP. Site-directed mutagenesis was performed on pTIE using the Quik-Change kit (Stratagene) following the manufacturer's instructions. […]
Cells were either co-transfected with pCMV-TASK1 together with pEGFP-C1 (1 μg total, 3:1) or transfected with […] or T381A-pTIE (1 μg). 48 h after the transfection the cells were checked under the microscope for green fluorescence. […]
The myocyte suspension or the coverslip with CHO cells was placed into a perfusion chamber, mounted on the stage of an inverted microscope. […] Membrane potential and current were measured in the whole cell configuration using borosilicate glass pipettes with a tip resistance between […] and filled with a pipette solution containing (mM): aspartic acid, 130; KOH, 146; NaCl, 10; CaCl2, 2; EGTA, 5; HEPES, 10; MGATP, 2; pH 7.2. […] Myocytes treated with the peptides were monitored continuously beginning immediately after rupture to detect the occurrence of any arrhythmias during dialysis of the peptide. […]

Structure (SMILES)	effect on atrial fibrillation ([1]; 0.7 mg/kg)	persistence in normal sinus rhythm ([1]; 0.7 mg/kg infused over 2 min)	time to normalization of EKG ([1]; 0.7 mg/kg infused over 2 min)	time to slowing of heart rate after administration ([1]; 0.7 mg/kg infused over 2 min)	maximal current in the presence of C-PAF [2]
CCCCCc1ccc(C=CC(=O)Nc2cc(Cl)ccc2C(=O)O)cc1 [ONO-RS-082]	halts atrial fibrillation	over an hour	≤ 5 min	≤ 1 min	–
CCCCCCCCCCCCCCCCOC[C@H](COP(=O)([O-])OCC[N+](C)(C)C)OC(=O)NC [C-PAF, carbamyl-platelet-activating factor]	–	–	–	–	44.2±7 pA/pF

From patent US8097650B2, “Method of treating a condition associated with phosphorylation of TASK-1” (The Trustees of Columbia University In The City of New York, priority 2005, dated 2012)
